According to patent US20090068290A1, “BIFEPRUNOX DOSES FOR TREATING SCHIZOPHRENIA” (priority 2006, published 2009):

Experiments:
Assay type in all cases: in vivo, human
[1] = system: adult subjects with schizophrenia; assay: Adverse events (TEAE, SAE, discontinuation, EPS-related TEAE, anticholinergic use), Clinical Study One; details: for safety and tolerability: bifeprunox 5, 10, 20 mg, 6 weeks
Method: METHODOLOGY: This was a randomized, double-blind, fixed-dose, placebo-controlled, risperidone-referenced, parallel group, multi-center study in adult subjects with schizophrenia. There were five treatment groups in this study. […] Study medication was administered once daily. After Baseline measurements were performed, the titration phase was begun. Bifeprunox treated subjects were titrated up to 5 mg, 10 mg or 20 mg according to a standardized titration schedule (Day 1: 0.125 mg, Day 2: 0.25 mg, Day 3: 0.5 mg, Day 4: 1.0 mg, Day 5: 2.0 mg, Day 6: 5.0 mg, Day 7: 10.0 mg, Day 8: 20 mg).

[2] = system: adult subjects with schizophrenia; assay: CGI responder rate, Clinical Study Three; details: LOCF; for CGI Responder No, % / CGI Responder Yes, %: Week 6/Endpoint
From the text: CLINICAL STUDY THREE: A CGI responder is defined as a subject who is categorized as “very much improved” or “much improved” on the CGI Improvement scale. […] No notable differences were observed between the placebo group and either of the two bifeprunox dose groups.

[3] = system: adult subjects with schizophrenia; assay: CGI Severity of Illness score, Clinical Study One; parameters: Change from Baseline in CGI Severity of Illness Score, Median: scale not given here; details: for Change from Baseline in CGI Severity of Illness Score, Mean (S.D.) / Change from Baseline in CGI Severity of Illness Score, Median / Change from Baseline in CGI Severity of Illness Score, Trt Effect (bifeprunox—placebo): ITT population
Method: There were five treatment groups in this study. […] Study medication was administered once daily. After Baseline measurements were performed, the titration phase was begun. Bifeprunox treated subjects were titrated up to 5 mg, 10 mg or 20 mg according to a standardized titration schedule (Day 1: 0.125 mg, Day 2: 0.25 mg, Day 3: 0.5 mg, Day 4: 1.0 mg, Day 5: 2.0 mg, Day 6: 5.0 mg, Day 7: 10.0 mg, Day 8: 20 mg). When the assigned dose was reached, subjects were maintained at that dose for the remainder of the six-week treatment period.
The change in the Positive and Negative Symptom Scale (PANSS) total score, from baseline to endpoint, was the primary outcome measure. Secondary efficacy measures included: PANSS positive, PANSS negative, PANSS general psychopathology (GPP) score, PANSS-derived Brief Psychiatric Rating Scale (BPRS) score, Clinical Global Impressions-Severity of Illness (CGI-S), CGI-Improvement (CGI-I) scores, and responder rates. Safety and tolerability evaluations included extrapyramidal symptoms (EPS), weight gain, lipid profile, and serum prolactin.

[4] = Bifeprunox 10 mg, Endpoint LOCF
[5] = Bifeprunox 20 mg, Endpoint LOCF

Question: Which results are given for `O=c1[nH]c2cccc(N3CCN(Cc4cccc(-c5ccccc5)c4)CC3)c2o1` [Bifeprunox, 7-[4-([1,1′-biphenyl]-3-ylmethyl)-1-piperazinyl]-2(3H)-benzoxazolone]?
Answer: Hyperactivity Syndrome Aggravated, % ([1]; BX 10 mg): (<1%); Loss of Propriception, % ([1]; BX 10 mg): (<1%); Migraine Nos, % ([1]; BX 10 mg): (<1%); PSYCHIATRIC DISORDERS, % ([1]; BX 10 mg): (32%); SEDATION, % ([1]; BX 10 mg): (8%); SOMNOLENCE, % ([1]; BX 10 mg): (2%); Syncope, % ([1]; BX 10 mg): (3%); TARDIVE DYSKINESIA, % ([1]; BX 10 mg): (<1%); Adjustment Disorder Nos, % ([1]; BX 20 mg): (<1%); Affect Lability, % ([1]; BX 20 mg): (<1%); Aggression, % ([1]; BX 20 mg): (<1%); Agitation Aggravated, % ([1]; BX 20 mg): (<1%); Agitation, % ([1]; BX 20 mg): (11%); Anxiety Aggravated, % ([1]; BX 20 mg): (2%); Anxiety, % ([1]; BX 20 mg): (6%); Bruxism, % ([1]; BX 20 mg): (<1%); Confusion, % ([1]; BX 20 mg): (<1%); DIZZINESS, % ([1]; BX 20 mg): (7%); DYSARTHRIA, % ([1]; BX 20 mg): (<1%); Disturbance in Attention, % ([1]; BX 20 mg): (<1%); Dystonia, % ([1]; BX 20 mg): (<1%); EXTRAPYRAMIDAL DISORDER, % ([1]; BX 20 mg): (2%); Headache Nos, % ([1]; BX 20 mg): (25%); Hypoaesthesia, % ([1]; BX 20 mg): (<1%); Memory Impairment, % ([1]; BX 20 mg): (3%); Oculogyric Crisis, % ([1]; BX 20 mg): (<1%); PSYCHIATRIC DISORDERS, % ([1]; BX 20 mg): (40%); Parkinsonism, % ([1]; BX 20 mg): (<1%); SEDATION, % ([1]; BX 20 mg): (9%); SOMNOLENCE, % ([1]; BX 20 mg): (5%); Syncope, % ([1]; BX 20 mg): (2%); TARDIVE DYSKINESIA, % ([1]; BX 20 mg): (<1%); TREMOR, % ([1]; BX 20 mg): (<1%); subjects with at least one AE that led to discontinuation ([1]; bifeprunox 5 mg): 11%; subjects with at least one TEAE ([1]; bifeprunox 5 mg): 89%; subjects with at least one AE that led to discontinuation ([1]; bifeprunox 10 mg): 14%; subjects with at least one TEAE ([1]; bifeprunox 10 mg): 87%; incidence of aggravated schizophrenia NOS (SAE) ([1]; bifeprunox 20 mg): 7%; subjects with at least one AE that led to discontinuation ([1]; bifeprunox 20 mg): 10%; subjects with at least one TEAE ([1]; bifeprunox 20 mg): 83%; subjects with at least one severe TEAE ([1]; bifeprunox 20 mg): 10%; suicide attempt ([1]; bifeprunox 20 mg): 2%; safety and tolerability [1]: safe and well tolerated at all dose levels; safety and tolerability ([1]; listed as bifeprunox): safe and well tolerated; subjects with at least one SAE ([1]; bifeprunox groups (5, 10, 20 mg)): 12-15%; rates of EPS ([1]; bifeprunox, 6 weeks (Example 4)): comparable to placebo; CGI Responder No, % ([2]; 20 mg): 62%; CGI Responder Yes, % ([2]; 20 mg): 38%; CGI Responder No, % ([2]; 30 mg): 66%; CGI Responder Yes, % ([2]; 30 mg): 34%; CGI-I responder rate (subjects much or very much improved) at Endpoint ([2]; bifeprunox 20 mg): 38%; CGI-I responder rate (subjects much or very much improved) at Endpoint ([2]; bifeprunox 30 mg): 34%; CGI severity of illness score, treatment effect (bifeprunox—placebo) ([3]; Bifeprunox 5 mg, Endpoint LOCF): −0.31; Change from Baseline in CGI Severity of Illness Score, Mean (S.D.) ([3]; Bifeprunox 5 mg, Endpoint LOCF): −0.58 (1.10); Change from Baseline in CGI Severity of Illness Score, Median ([3]; Bifeprunox 5 mg, Endpoint LOCF): 0.0; Change from Baseline in CGI Severity of Illness Score, Trt Effect (bifeprunox—placebo) ([3]; Bifeprunox 5 mg, Endpoint LOCF): −0.31; Change from Baseline in CGI Severity of Illness Score, Mean (S.D.) ([3]; Bifeprunox 5 mg, Week 1, LOCF): −0.18 (0.68); Change from Baseline in CGI Severity of Illness Score, Median ([3]; Bifeprunox 5 mg, Week 1, LOCF): 0.0; Change from Baseline in CGI Severity of Illness Score, Mean (S.D.) ([3]; Bifeprunox 5 mg, Week 2, LOCF): −0.37 (0.83); Change from Baseline in CGI Severity of Illness Score, Median ([3]; Bifeprunox 5 mg, Week 2, LOCF): 0.0; Change from Baseline in CGI Severity of Illness Score, Mean (S.D.) ([3]; Bifeprunox 5 mg, Week 3, LOCF): −0.47 (0.90); Change from Baseline in CGI Severity of Illness Score, Median ([3]; Bifeprunox 5 mg, Week 3, LOCF): 0.0; Change from Baseline in CGI Severity of Illness Score, Mean (S.D.) ([3]; Bifeprunox 5 mg, Week 4, LOCF): −0.52 (1.01); Change from Baseline in CGI Severity of Illness Score, Median ([3]; Bifeprunox 5 mg, Week 4, LOCF): 0.0; CGI severity of illness score, treatment effect (bifeprunox—placebo) [3, 4]: 0.12; Change from Baseline in CGI Severity of Illness Score, Mean (S.D.) [3, 4]: −0.18 (1.04); Change from Baseline in CGI Severity of Illness Score, Median [3, 4]: 0.0; Change from Baseline in CGI Severity of Illness Score, Trt Effect (bifeprunox—placebo) [3, 4]: 0.12; Change from Baseline in CGI Severity of Illness Score, Mean (S.D.) ([3]; Bifeprunox 10 mg, Week 1, LOCF): 0.13 (0.75); Change from Baseline in CGI Severity of Illness Score, Median ([3]; Bifeprunox 10 mg, Week 1, LOCF): 0.0; Change from Baseline in CGI Severity of Illness Score, Mean (S.D.) ([3]; Bifeprunox 10 mg, Week 2, LOCF): −2.3 (0.92); Change from Baseline in CGI Severity of Illness Score, Median ([3]; Bifeprunox 10 mg, Week 2, LOCF): 0.0; Change from Baseline in CGI Severity of Illness Score, Mean (S.D.) ([3]; Bifeprunox 10 mg, Week 3, LOCF): −0.22 (1.01); Change from Baseline in CGI Severity of Illness Score, Median ([3]; Bifeprunox 10 mg, Week 3, LOCF): 0.0; Change from Baseline in CGI Severity of Illness Score, Mean (S.D.) ([3]; Bifeprunox 10 mg, Week 4, LOCF): −0.16 (0.99); Change from Baseline in CGI Severity of Illness Score, Median ([3]; Bifeprunox 10 mg, Week 4, LOCF): 0.0; Change from Baseline in CGI Severity of Illness Score, Mean (S.D.) [3, 5]: −0.52 (0.96); Change from Baseline in CGI Severity of Illness Score, Median [3, 5]: 0.0; Change from Baseline in CGI Severity of Illness Score, Trt Effect (bifeprunox—placebo) [3, 5]: −0.19; Change from Baseline in CGI Severity of Illness Score, Mean (S.D.) ([3]; Bifeprunox 20 mg, Week 1, LOCF): −0.31 (0.74); Change from Baseline in CGI Severity of Illness Score, Median ([3]; Bifeprunox 20 mg, Week 1, LOCF): 0.0; Change from Baseline in CGI Severity of Illness Score, Mean (S.D.) ([3]; Bifeprunox 20 mg, Week 2, LOCF): −0.50 (0.85); Change from Baseline in CGI Severity of Illness Score, Median ([3]; Bifeprunox 20 mg, Week 2, LOCF): 0.0; Change from Baseline in CGI Severity of Illness Score, Mean (S.D.) ([3]; Bifeprunox 20 mg, Week 3, LOCF): −0.57 (0.90); Change from Baseline in CGI Severity of Illness Score, Median ([3]; Bifeprunox 20 mg, Week 3, LOCF): 0.0; Change from Baseline in CGI Severity of Illness Score, Mean (S.D.) ([3]; Bifeprunox 20 mg, Week 4, LOCF): −0.57 (0.89); Change from Baseline in CGI Severity of Illness Score, Median ([3]; Bifeprunox 20 mg, Week 4, LOCF): 0.0; CGI severity of illness score, treatment effect (bifeprunox—placebo) ([3]; bifeprunox 20 mg, Endpoint LOCF): −0.19
